Laboratory results reported in patent US9242984B2, “Pyrazolyl derivatives as Syk inhibitors” (Merck Sharp & Dohme Corp., priority 2012, dated 2016).

Each compound was assayed against T1, recombinant human Syk (GST-hSyk fusion protein) (Homo sapiens, UniProt P43405) (assay: Homogeneous Time-Resolved Fluorescence (HTRF) assay for the recombinant human Syk enzyme). Settings: 10-dose titration, 25 μM ATP; read-out: rhSYK IC50.
T1 construct: purchased Carna Biosciences 08-176
Assay type: biochemical
Method: Syk inhibition may be determined using the following assay protocol:
Homogeneous Time-Resolved Fluorescence (HTRF) Assay for the Recombinant Human Syk Enzyme:
A recombinant GST-hSyk fusion protein was used to measure potency of compounds to inhibit human Syk activity. The recombinant human GST-Syk (Carna Biosciences #08-176) (5 pM final concentration) was incubated with various concentrations of the inhibitor diluted in DMSO (0.1% final concentration) for 10 minutes at room temperature in 15 mM Tris-HCl (pH 7.5), 0.01% tween 20, 2 mM DTT in 384 well plate format. To initiate the reaction the biotinylated substrate peptide (250 nM final concentration) that contains the phosphorylation site for Syk was added with magnesium (5 mM final concentration) and ATP (25 μM final concentration). Final volume of the reaction was 10 μL. Phosphorylation of the peptide was allowed to proceed for 45 minutes at room temperature. To quench the reaction and detect the phosphorylated product, 2 nM of a Europium-anti-phosphotyrosine antibody (Perkin Elmer #AD0161) and 70 nM SA-APC (Perkin-Elmer #CR130-100) were added together in 15 mM Tris pH 7.5, 40 mM EDTA, 0.01% tween 20. Final volume of the quenching solution was 10 μL. The resulting HTRF signal was measured after 30 minutes on an EnVision (Perkin-Elmer) reader using a time-resolved fluorescence protocol. IC50 was determined following 10-dose titration (10 μM to 0.508 nM) and four parameter logistic curve fitting using the Merck Assay Data Analyzer. The rhSyk activity (IC50) is expressed as +++(100 nM or less), ++(between 100 and 1000 nM), +(between 1 and 10 μM).

SMILES | IC50 [nM]
Cc1cc(Nc2ncccn2)cc(-c2cnn(C3CC(C(N)=O)C3)c2)c1 (single isomer, unassigned) [Example 31.1, 3-(4-(3-Methyl-5-(pyrimidin-2-ylamino)phenyl)-1H-pyrazol-1-yl)cyclobutanecarboxamide] | 34.9
Cc1cc(Nc2nccc(C(F)F)n2)cc(-c2cnn(C3CCCC(O)C3O)c2)c1 (single isomer, unassigned) [Example 10.5, 3-[4-(3-{[4-(difluoromethyl)pyrimidin-2-yl]amino}-5-methylphenyl)-1H-pyrazol-1-yl]cyclohexane-1,2-diol] | 5.24

Further lines, results first:

IC50 [nM] | SMILES
27.4 | COC(=O)[C@@H](N)Cn1cc(-c2cc(C)cc(Nc3nccc(C(F)(F)F)n3)c2)cn1 [Example 4.1, methyl 3-[4-(3-methyl-5-{[4-(trifluoromethyl)pyrimidin-2-yl]amino}phenyl)-1H-pyrazol-1-yl]-L-alaninate]
1.6 | Cc1cc(Nc2nccc(C(F)F)n2)cc(-c2cnn(CC3OC(=O)NC3CO)c2)c1 (single isomer, unassigned) [Example 33.1, 5-{[4-(3-{[4-(difluoromethyl)pyrimidin-2-yl]amino}-5-methylphenyl)-1H-pyrazol-1-yl]methyl}-4-(hydroxymethyl)-1,3-oxazolidin-2-one]

Same assay, conditions: IC50 class; 10-dose titration, 25 μM ATP; read-out: rhSYK Activity

SMILES | IC50 [nM]
Cc1cc(Nc2nccc(C(F)(F)F)n2)cc(-c2cnn(CC3(O)CCOC(C)(C)C3)c2)c1 (stereo not drawn) [Example 12.9, 2,2-dimethyl-4-{[4-(3-methyl-5-{[4-(trifluoro-methyl)pyrimidin-2-yl]amino}phenyl)-1H-pyrazol-1-yl]methyl}-tetrahydro-2H-pyran-4-ol] | ≤ 100
Cc1cc(Nc2nccc(C(F)(F)F)n2)cc(-c2cnn(C3CCC(C(N)=O)CC3)c2)c1 (stereo not drawn) [Example 8.6, 4-[4-(3-methyl-5-{[4-(trifluorometh-yl)pyrimidin-2-yl]amino}-phenyl)-1H-pyrazol-1-yl]cyclohexane-carboxamide] | ≤ 100
Cc1cc(Nc2ncccn2)cc(-c2cnn(CC3CNC(=O)O3)c2)c1 (stereo not drawn) [Example 3.116, 5-({4-[3-methyl-5-(pyrimidin-2-ylamino)phenyl]-1H-pyrazol-1-yl}methyl)-1,3-oxazolidin-2-one] | ≤ 100
Cc1cc(Nc2nccc(C(F)(F)F)n2)cc(-c2cnn(Cc3ccnnc3)c2)c1 [Example 3.32, N-{3-methyl-5-[1-(pyridazin-4-ylmethyl)-1H-pyrazol-4-yl]phenyl}-4-(trifluoromethyl)pyrimidin-2-amine] | ≤ 100
Cc1cc(Nc2nccc(C(F)F)n2)cc(-c2cnn(CC(O)CC3COC(=O)C3)c2)c1 (stereo not drawn) [Example 5.28, 4-{3-[4-(3-{[4-(difluoromethyl)pyrimidin-2-yl]amino}-5-methylphenyl)-1H-pyrazol-1-yl]-2-hydroxypropyl}dihydrofuran-2(3H)-one] | ≤ 100
Cc1cc(Nc2ncccn2)cc(-c2cnn(C3CC(C(N)=O)C3)c2)c1 (single isomer, unassigned) [Example 31.1, 3-(4-(3-Methyl-5-(pyrimidin-2-ylamino)phenyl)-1H-pyrazol-1-yl)cyclobutanecarboxamide] | ≤ 100
O=C1NCC(Cn2cc(-c3cccc(Nc4cc(C(F)F)ccn4)n3)cn2)O1 (stereo not drawn) [Example 3.82, 5-{[4-(6-{[4-(difluoromethyl)pyridin-2-yl]amino}pyridin-2-yl)-1H-pyrazol-1-yl]methyl}-1,3-oxazolidin-2-one] | ≤ 100
Cc1cc(Nc2ncc(Cl)c(C)n2)cc(-c2cnn(C[C@@H](O)C(=O)O)c2)c1 [Example 11.7, (2R)-3-(4-{3-[(5-chloro-4-methyl-pyrimidin-2-yl)-amino]-5-methyl-phenyl}-1H-pyrazol-1-yl)-2-hydroxy-propanoic acid] | ≤ 100
Cc1cc(Nc2nccc(C(F)F)n2)cc(-c2cnn(C3CCCC(O)C3O)c2)c1 (single isomer, unassigned) [Example 10.5, 3-[4-(3-{[4-(difluoromethyl)pyrimidin-2-yl]amino}-5-methylphenyl)-1H-pyrazol-1-yl]cyclohexane-1,2-diol] | ≤ 100
CCOC(=O)CCn1cc(-c2cccc(Nc3cc(C(F)(F)F)ccn3)n2)cn1 [Example 1.24, ethyl 3-[4-(6-{[4-(trifluoromethyl)pyridin-2-yl]amino}pyridin-2-yl)-1H-pyrazol-1-yl]propanoate] | 100 to 1000
Cc1cc(Nc2nccc(C(F)F)n2)cc(-c2cnn(C(C)C3CNC(=O)O3)c2)c1 (stereo not drawn) [Example 3.93, 5-{1-[4-(3-{[4-(difluoromethyl)pyrimidin-2-yl]amino}-5-methylphenyl)-1H-pyrazol-1-yl]ethyl}-1,3-oxazolidin-2-one] | ≤ 100
Cc1cc(Nc2cc(C(F)F)ccn2)nc(-c2cnn(C(C)C3CNC(=O)C3)c2)c1 (stereo not drawn) [Example 1.63, 4-{1-[4-(6-{[4-(difluoromethyl)pyridin-2-yl]amino}-4-methylpyridin-2-yl)-1H-pyrazol-1-yl]ethyl}pyrrolidin-2-one] | ≤ 100

More lines, now with the values ahead:

IC50 [nM] | SMILES
≤ 100 | CC(O)c1ccnc(Nc2cccc(-c3cnn(C[C@](C)(O)CO)c3)c2)n1 (stereo partly drawn) [Example 2.93, (2S)-3-[4-(3-{[4-(1-hydroxyethyl)pyrimidin-2-yl]amino}phenyl)-1H-pyrazol-1-yl]-2-methylpropane-1,2-diol]
≤ 100 | COc1ccnc(Nc2cc(C)cc(-c3cnn(C[C@](C)(O)CO)c3)c2)n1 [Example 2.88, (2S)-3-(4-{3-[(4-methoxypyrimidin-2-yl)amino]-5-methylphenyl}-1H-pyrazol-1-yl)-2-methylpropane-1,2-diol]
≤ 100 | Cc1cc(Nc2nccc(OC(C)C)n2)cc(-c2cnn(C[C@@H](O)C(=O)O)c2)c1 [Example 11.14, (2R)-2-hydroxy-3-[4-(3-methyl-5-{[4-(1-methylethoxy)-pyrimidin-2-yl]amino}-phenyl)-1H-pyrazol-1-yl]propanoic acid]
< 1000 | CCOC(=O)CCn1cc(-c2cc(C)cc(Nc3nccc(C4CC4)n3)c2)cn1 [Example 2.41, ethyl 3-(4-{3-[(4-cyclopropylpyrimidin-2-yl)amino]-5-methylphenyl}-1H-pyrazol-1-yl)propanoate]
≤ 100 | Cc1cc(Nc2nccc(C(F)F)n2)cc(-c2cnn(CCC(N)=O)c2)c1 [Example 2.9, 3-[4-(3-{[4-(difluoromethyl)pyrimidin-2-yl]amino}-5-methylphenyl)-1H-pyrazol-1-yl]propanamide]
≤ 100 | COC(=O)[C@@H](N)Cn1cc(-c2cc(C)cc(Nc3nccc(C(F)(F)F)n3)c2)cn1 [Example 4.1, methyl 3-[4-(3-methyl-5-{[4-(trifluoromethyl)pyrimidin-2-yl]amino}phenyl)-1H-pyrazol-1-yl]-L-alaninate]
≤ 100 | Cc1cc(Nc2nccc(C)n2)cc(-c2cnn(CC(C)(O)CO)c2)c1 (single isomer, unassigned) [Example 25.4, 2-methyl-3-(4-{3-methyl-5-[(4-methylpyrimidin-2-yl)amino]phenyl}-1H-pyrazol-1-yl)propane-1,2-diol]
≤ 100 | Cc1cc(Nc2nccc(C(F)F)n2)cc(-c2cnn(CC(C)(C)NC(=O)C3CC3)c2)c1 [Example 26.2, N-{2-[4-(3-{[4-(difluoromethyl)pyrimidin-2-yl]amino}-5-methylphenyl)-1H-pyrazol-1-yl]-1,1-dimethylethyl}cyclopropanecarboxamide]
≤ 100 | Cc1cc(Nc2nccc(C(F)(F)F)n2)cc(-c2cnn(CC(C)(O)C(N)=O)c2)c1 (single isomer, unassigned) [Example 8.15, 2-hydroxy-2-methyl-3-[4-(3-methyl-5-{[4-(trifluorometh-yl)pyrimidin-2-yl]amino}phenyl)-1H-pyrazol-1-yl]propanamide]
≤ 100 | Cc1cc(Nc2nccc(C(F)F)n2)cc(-c2cnn(CC3OC(=O)NC3CO)c2)c1 (single isomer, unassigned) [Example 33.1, 5-{[4-(3-{[4-(difluoromethyl)pyrimidin-2-yl]amino}-5-methylphenyl)-1H-pyrazol-1-yl]methyl}-4-(hydroxymethyl)-1,3-oxazolidin-2-one]
≤ 100 | Cc1cc(Nc2nccc(C(F)(F)F)n2)cc(-c2cnn(C[C@@H](O)CC#N)c2)c1 [Example 3.47, (3S)-3-hydroxy-4-[4-(3-methyl-5-{[4-(trifluoromethyl)pyrimidin-2-yl]amino}-phenyl)-1H-pyrazol-1-yl]butanenitrile]
≤ 100 | Cc1cc(Nc2nccc(C(F)F)n2)cc(-c2cnn(CC3OC(=O)NC3CO)c2)c1 (single isomer, unassigned) [Example 33.3, 5-{[4-(3-{[4-(difluoromethyl)pyrimidin-2-yl]amino}-5-methylphenyl)-1H-pyrazol-1-yl]methyl}-4-(hydroxymethyl)-1,3-oxazolidin-2-one]
≤ 100 | Cc1cc(Nc2nccc(C(F)F)n2)cc(-c2cnn(C(C[C@@H](C)O)[C@@H](C)O)c2)c1 (stereo in doubt) [Example 2.56, 3-[4-(3-{[4-(difluoromethyl)pyrimidin-2-yl]amino}-5-methylphenyl)-1H-pyrazol-1-yl]hexane-2,5-diol]
≤ 100 | Cc1cc(Nc2nccc(C(F)F)n2)cc(-c2cnn(C(C[C@@H](C)O)[C@H](C)O)c2)c1 (stereo in doubt) [Example 2.54, 3-[4-(3-{[4-(difluoromethyl)pyrimidin-2-yl]amino}-5-methylphenyl)-1H-pyrazol-1-yl]hexane-2,5-diol]
≤ 100 | Cc1cc(Nc2nccc(C(F)F)n2)cc(-c2cnn(CC(O)CO)c2)c1 (stereo not drawn) [Example 3.112, 3-[4-(3-{[4-(difluoromethyl)pyrimidin-2-yl]amino}-5-methylphenyl)-1H-pyrazol-1-yl]propane-1,2-diol]
≤ 100 | Cc1cc(Nc2nccc(C(C)(F)F)n2)cc(-c2cnn(CC3CNC(=O)O3)c2)c1 (stereo not drawn) [Example 3.125, 5-{[4-(3-{[4-(1,1-difluoroethyl)pyrimidin-2-yl]amino}-5-methylphenyl)-1H-pyrazol-1-yl]methyl}-1,3-oxazolidin-2-one]
100 to 1000 | Cc1cc(Nc2nccc(C)n2)cc(-c2cnn(CC3(O)CCOCC3)c2)c1 [Example 12.13, 4-[(4-{3-methyl-5-[(4-methylpyrimidin-2-yl)amino]phenyl}-1H-pyrazol-1-yl)methyl]-tetrahydro-2H-pyran-4-ol]
